Counter-ions that a name gives are not always drawn. Like-named read-outs stand apart in the source and are kept apart here.
Tested on: IL-1β
Experiment: In vitro IL-1β inhibition in PMA-differentiated, LPS-primed, ATP-stimulated THP1 monocytes
Assay type: cell-based
Details: primed with 500 ng/mL LPS 4 hrs, compound 30 min, 5 mM ATP 1 hr, IL-1b in supernatant, read-out: IC50 (in vitro IL-1β inhibitory activity)
Description: THP1 monocytes were differentiated with PMA (100 ng/mL) and incubated at 37° C. for 20 hours in presence of 5% CO2. 2×10^5 differentiated cells were plated per well of 96 well tissue culture plates. The cells were primed using 500 ng/mL Lipopolysaccharide and incubating for 4 hrs under the same condition. The cells were then treated with various concentrations of the compounds for 30 min followed by treatment with 5 mM ATP for 1 hr. The supernatants were collected and analysed by IL-1b (Mabtech Cat #3415-1H-20) or TNF-a (Mabtech; Cat #3510-1H-20) detection kit. The data were analyzed using GraphPad Prism V7.0. Dose Response Curve (DRC) was constructed to determine the IC50 value by fitting percentage […] data to the GraphPad Prism using nonlinear regression analysis.

[1] = Homo sapiens, THP-1, THP1 cells differentiated with PMA 100 ng/mL

IC50 [1]	SMILES	other results
19 µM	CC(C)(C)OC(=O)N1CCC[C@@]1(C)/C=C/S(=O)(=NC#N)NC(=O)Nc1c2c(cc3c1CCC3)CCC2 (stereo partly drawn) [Example 3, tert-butyl (2S)-2-((E)-2-(N′-cyano-N-((1,2,3,5,6,7-hexahydro-s-indacen-4-yl)carbamoyl)sulfamidimidoyl)vinyl)-2-methylpyrrolidine-1-carboxylate]	–
–	C[C@@]1(/C=C/S(=O)(=NC#N)NC(=O)Nc2c3c(cc4c2CCC4)CCC3)CCCN1 (stereo partly drawn) [Example 4, (E)-N′-cyano-N-((1,2,3,5,6,7-hexahydro-s-indacen-4-yl)carbamoyl)-2-((S)-2-methylpyrrolidin-2-yl)ethene-1-sulfonimidamide hydrochloride]	IC50 (THP1 cells differentiated with PMA 100 ng/mL, hydrochloride): 20 µM
1.5 µM	CN1CCC[C@@]1(C)/C=C/S(=O)(=NC#N)NC(=O)Nc1c2c(cc3c1CCC3)CCC2 (stereo partly drawn) [Example 7, (E)-N′-cyano-2-((S)-1,2-dimethylpyrrolidin-2-yl)-N-((1,2,3,5,6,7-hexahydro-s-indacen-4-yl)carbamoyl)ethene-1-sulfonimidamide]	–
12 µM	N#CN=S(=O)(/C=C/[C@H]1CCCN1S(=O)(=O)C1CCCCC1)NC(=O)Nc1c2c(cc3c1CCC3)CCC2 (stereo partly drawn) [Example 8, (E)-N′-cyano-2-((R)-1-(cyclohexylsulfonyl)pyrrolidin-2-yl)-N-((1,2,3,5,6,7-hexahydro-s-indacen-4-yl)carbamoyl)ethene-1-sulfonimidamide]	–
11 µM	N#CN=S(=O)(/C=C/[C@H]1CCCN1S(=O)(=O)c1ccccc1C#N)NC(=O)Nc1c2c(cc3c1CCC3)CCC2 (stereo partly shown) [Example 9]	–
6.4 µM	N#CN=S(=O)(/C=C/[C@H]1CCCN1)NC(=O)Nc1c2c(cc3c1CCC3)CCC2 (stereo partly drawn) [Example 10, (E)-N′-cyano-N-((1,2,3,5,6,7-hexahydro-s-indacen-4-yl)carbamoyl)-2-((R)-pyrrolidin-2-yl)ethene-1-sulfonimidamide hydrochloride]	–
2.3 µM	CN1CCC[C@@H]1/C=C/S(=O)(=NC#N)NC(=O)Nc1c2c(cc3c1CCC3)CCC2 (stereo partly drawn) [Example 11, (E)-N′-cyano-N-((1,2,3,5,6,7-hexahydro-s-indacen-4-yl)carbamoyl)-2-((R)-1-methylpyrrolidin-2-yl)ethene-1-sulfonimidamide]	–
4 µM	CC(C)(C)OC(=O)N1CCC[C@]1(C)/C=C/S(=O)(=NC#N)NC(=O)Nc1c2c(cc3c1CCC3)CCC2 (stereo partly drawn) [Example 13, tert-butyl (2R)-2-((E)-2-(N′-cyano-N-((1,2,3,5,6,7-hexahydro-s-indacen-4-yl)carbamoyl)sulfamidimidoyl)vinyl)-2-methylpyrrolidine-1-carboxylate]	–
9 µM	C[C@]1(/C=C/S(=O)(=NC#N)NC(=O)Nc2c3c(cc4c2CCC4)CCC3)CCCN1 (stereo partly drawn) [Example 14, (E)-N′-cyano-N-((1,2,3,5,6,7-hexahydro-s-indacen-4-yl)carbamoyl)-2-((R)-2-methylpyrrolidin-2-yl)ethene-1-sulfonimidamide hydrochloride]	–
2.1 µM	CN1CCC[C@]1(C)/C=C/S(=O)(=NC#N)NC(=O)Nc1c2c(cc3c1CCC3)CCC2 (stereo partly drawn) [Example 15, (E)-N′-cyano-2-((R)-1,2-dimethylpyrrolidin-2-yl)-N-((1,2,3,5,6,7-hexahydro-s-indacen-4-yl)carbamoyl)ethene-1-sulfonimidamide]	–
11 µM	CC(C)N1CCC[C@@]1(C)/C=C/S(=O)(=NC#N)NC(=O)Nc1c2c(cc3c1CCC3)CCC2 (stereo partly drawn) [Example 17, (E)-N′-cyano-N-((1,2,3,5,6,7-hexahydro-s-indacen-4-yl)carbamoyl)-2-((S)-1-isopropyl-2-methylpyrrolidin-2-yl)ethene-1-sulfonimidamide]	–
18 µM	C[C@@]1(/C=C/S(=O)(=NC#N)NC(=O)Nc2c3c(cc4c2CCC4)CCC3)CCCN1C1CCCC1 (stereo partly drawn) [Example 18, (E)-N′-cyano-2-((S)-1-cyclopentyl-2-methylpyrrolidin-2-yl)-N-((1,2,3,5,6,7-hexahydro-s-indacen-4-yl)carbamoyl)ethene-1-sulfonimidamide]	–
4.6 µM	C[C@@]1(/C=C/S(=O)(=NC#N)NC(=O)Nc2c3c(cc4c2CCC4)CCC3)CCCN1C1CCC1 (stereo partly drawn) [Example 19, (E)-N′-cyano-2-((S)-1-cyclobutyl-2-methylpyrrolidin-2-yl)-N-((1,2,3,5,6,7-hexahydro-s-indacen-4-yl)carbamoyl)ethene-1-sulfonimidamide]	–
–	C[C@@]1(/C=C/S(=O)(=NC#N)NC(=O)Nc2c3c(cc4c2CCC4)CCC3)CCCN1 (stereo partly drawn) [Example 20, (E)-N′-cyano-N-((1,2,3,5,6,7-hexahydro-s-indacen-4-yl)carbamoyl)-2-((S)-2-methylpyrrolidin-2-yl)ethene-1-sulfonimidamide]	IC50 (THP1 cells differentiated with PMA 100 ng/mL): 3.2 µM
4.6 µM	C[C@@]1(/C=C/S(=O)(=NC#N)NC(=O)Nc2c3c(cc4c2CCC4)CCC3)CCCN1CC1CC1 (stereo partly drawn) [Example 21, (E)-N′-cyano-2-((S)-1-(cyclopropylmethyl)-2-methylpyrrolidin-2-yl)-N-((1,2,3,5,6,7-hexahydro-s-indacen-4-yl)carbamoyl)ethene-1-sulfonimidamide]	–
–	C[C@@]1(/C=C/S(=O)(=NC#N)NC(=O)Nc2c3c(cc4c2CCC4)CCC3)CCCN1 (stereo partly drawn) [Example 22, (E)-N′-cyano-N-((1,2,3,5,6,7-hexahydro-s-indacen-4-yl)carbamoyl)-2-((S)-2-methylpyrrolidin-2-yl)ethene-1-sulfonimidamide 2,2,2-trifluoroacetate]	IC50 (THP1 cells differentiated with PMA 100 ng/mL, 2,2,2-trifluoroacetate): 8.9 µM
15 µM	CC(C)CN1CCC[C@@]1(C)/C=C/S(=O)(=NC#N)NC(=O)Nc1c2c(cc3c1CCC3)CCC2 (stereo partly drawn) [Example 24, (E)-N′-cyano-N-((1,2,3,5,6,7-hexahydro-s-indacen-4-yl)carbamoyl)-2-((S)-1-isobutyl-2-methylpyrrolidin-2-yl)ethene-1-sulfonimidamide]	–
19 µM	CC(=O)N1CCC[C@@]1(C)/C=C/S(=O)(=NC#N)NC(=O)Nc1c2c(cc3c1CCC3)CCC2 (stereo partly drawn) [Example 25, (E)-2-((S)-1-acetyl-2-methylpyrrolidin-2-yl)-N′-cyano-N-((1,2,3,5,6,7-hexahydro-s-indacen-4-yl)carbamoyl)ethene-1-sulfonimidamide]	–
19 µM	CCN1CCC[C@@]1(C)/C=C/S(=O)(=NC#N)NC(=O)Nc1c2c(cc3c1CCC3)CCC2 (stereo partly drawn) [Example 26, (E)-N′-cyano-2-((S)-1-ethyl-2-methylpyrrolidin-2-yl)-N-((1,2,3,5,6,7-hexahydro-s-indacen-4-yl)carbamoyl)ethene-1-sulfonimidamide]	–
15 µM	C[C@@]1(/C=C/S(=O)(=NC#N)NC(=O)Nc2c3c(cc4c2CCC4)CCC3)CCCN1Cc1nccs1 (stereo partly drawn) [Example 29, (E)-N′-cyano-N-((1,2,3,5,6,7-hexahydro-s-indacen-4-yl)carbamoyl)-2-((S)-2-methyl-1-(thiazol-2-ylmethyl)pyrrolidin-2-yl)ethene-1-sulfonimidamide]	–
9.2 µM	C[C@@]1(/C=C/S(=O)(=NC#N)NC(=O)Nc2c3c(cc4c2CCC4)CCC3)CCCN1C(N)=O (stereo partly drawn) [Example 31, (2S)-2-((E)-2-(N′-cyano-N-((1,2,3,5,6,7-hexahydro-s-indacen-4-yl)carbamoyl)sulfamidimidoyl)vinyl)-2-methylpyrrolidine-1-carboxamide]	–
19 µM	CC(C)(C)OC(=O)N1CCCC1/C=C/S(=O)(=NC#N)NC(=O)Nc1c2c(cc3c1CCC3)CCC2 [Example 34, tert-butyl (2R)-2-((E)-2-(N′-cyano-N-((1,2,3,5,6,7-hexahydro-s-indacen-4-yl)carbamoyl)sulfamidimidoyl)vinyl)pyrrolidine-1-carboxylate]	–
